Reference: patent US12077503B2, “Substituted cyclic amides and their use as herbicides” (FMC CORPORATION, priority 2015, dated 2024)

Experiments:
Type in all cases: in vivo
[1] = tested on: ivy-leaved morning glory (Ipomoea hederacea); assay: Test G Pre-Emergence Protocol; details: Ipomoea, pre-emergence, 312 h, evaluated after 13 days; for pest or weed control at 15.625 g/ha: 15.625 g ai/ha, read-out: Morning-glory, Ivy-leaved damage rating (100=total damage to plant; 0=no damage to plant); for pest or weed control at 62.5 g/ha: 62.5 g ai/ha, 100=total damage to plant, 0=no damage to plant, read-out: plant damage rating, Morningglory, Ivy-leaved; for pest or weed control at 250 g/ha: 250 g ai/ha, read-out: Morningglory, Ivy-leaved damage rating (100=total damage to plant; 0=no damage to plant)
Procedure, shortened: (§1)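 Pots of seeds in standard soil were grown for one day in a glasshouse (24/16 °C day/night, 14 h light, 65% humidity), then sprayed with compound in acetone/water 50:50 with 0.5% Tween 20 at 15.625, 62.5 or 250 g/ha. Damage was scored after 13 days on a 0 (none) to 100 (total) scale.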

[2] = tested on: barnyardgrass (Echinochloa crus-galli); assay: Test G Pre-Emergence Protocol; details: Echinochloa crus-galli, pre-emergence, 312 h, evaluated after 13 days; for pest or weed control at 15.625 g/ha: 15.625 g ai/ha, read-out: Barnyard grass damage rating (100=total damage to plant; 0=no damage to plant); for pest or weed control at 62.5 g/ha: 62.5 g ai/ha, 100=total damage to plant, 0=no damage to plant, read-out: plant damage rating, Barnyardgrass; for pest or weed control at 250 g/ha: 250 g ai/ha, read-out: Barnyardgrass damage rating (100=total damage to plant; 0=no damage to plant)
Procedure, shortened: as §1

[3] = tested on: redroot pigweed (Amaranthus retroflexus); assay: Test G Pre-Emergence Protocol; details: Amaranthus retroflexus, pre-emergence, 312 h, evaluated after 13 days; for pest or weed control at 15.625 g/ha: 15.625 g ai/ha; for pest or weed control at 15.625 g/ha / pest or weed control at 250 g/ha: read-out: Pigweed, Redroot damage rating (100=total damage to plant; 0=no damage to plant); for pest or weed control at 62.5 g/ha: 62.5 g ai/ha, 100=total damage to plant, 0=no damage to plant, read-out: plant damage rating, Pigweed, Redroot; for pest or weed control at 250 g/ha: 250 g ai/ha
Procedure, shortened: as §1

[4] = tested on: corn (Zea mays); assay: Test G Pre-Emergence Protocol; details: Zea mays, pre-emergence, 312 h, evaluated after 13 days; for plant injury at 15.625 g/ha: 15.625 g ai/ha; for plant injury at 15.625 g/ha / plant injury at 250 g/ha: read-out: Corn damage rating (100=total damage to plant; 0=no damage to plant); for plant injury at 62.5 g/ha: 62.5 g ai/ha, 100=total damage to plant, 0=no damage to plant, read-out: plant damage rating, Corn; for plant injury at 250 g/ha: 250 g ai/ha
Procedure, shortened: as §1

[5] = tested on: velvetleaf (Abutilon theophrasti); assay: Test G Pre-Emergence Protocol; details: Abutilon theophrasti, pre-emergence, 312 h, evaluated after 13 days; for pest or weed control at 15.625 g/ha: 15.625 g ai/ha; for pest or weed control at 15.625 g/ha / pest or weed control at 250 g/ha: read-out: Velvetleaf damage rating (100=total damage to plant; 0=no damage to plant); for pest or weed control at 62.5 g/ha: 62.5 g ai/ha, 100=total damage to plant, 0=no damage to plant, read-out: plant damage rating, Velvetleaf; for pest or weed control at 250 g/ha: 250 g ai/ha
Procedure, shortened: as §1

[6] = tested on: giant foxtail (Setaria faberi); assay: Test G Pre-Emergence Protocol; details: Setaria faberi, pre-emergence, 312 h, evaluated after 13 days; for pest or weed control at 15.625 g/ha: 15.625 g ai/ha; for pest or weed control at 15.625 g/ha / pest or weed control at 250 g/ha: read-out: Foxtail, Giant damage rating (100=total damage to plant; 0=no damage to plant); for pest or weed control at 62.5 g/ha: 62.5 g ai/ha, 100=total damage to plant, 0=no damage to plant, read-out: plant damage rating, Foxtail, Giant; for pest or weed control at 250 g/ha: 250 g ai/ha
Procedure, shortened: as §1

[7] = tested on: ivy-leaved morning glory (Ipomoea hederacea); assay: Test G Post-Emergence Protocol; details: Ipomoea, post-emergence, 312 h; for pest or weed control at 15.625 g/ha: 15.625 g ai/ha, evaluated after 13 days (100=total damage to plant; 0=no damage to plant), read-out: Morningglory, Ivy-leaved damage rating; for pest or weed control at 62.5 g/ha: 62.5 g ai/ha, read-out: Morningglory, Ivy-leaved damage rating (100=total damage to plant; 0=no damage to plant); for pest or weed control at 62.5 g/ha / pest or weed control at 250 g/ha: evaluated after 13 days; for pest or weed control at 250 g/ha: 250 g ai/ha, read-out: damage to plant, Morningglory, Ivy-leaved (100=total damage to plant; 0=no damage to plant)
Procedure, shortened: (§2)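 Eight days post-sowing, plants received a spray of test compound (acetone/water 50:50, 0.5% Tween 20) at 15.625, 62.5 or 250 g/ha. Glasshouse regime thereafter: 24/16 °C, 14 h light, 65% humidity. Assessment after 13 days on a 0–100 damage scale.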

[8] = tested on: barnyardgrass (Echinochloa crus-galli); assay: Test G Post-Emergence Protocol; details: Echinochloa crus-galli, post-emergence, 312 h; for pest or weed control at 15.625 g/ha: 15.625 g ai/ha, evaluated after 13 days (100=total damage to plant; 0=no damage to plant), read-out: Barnyardgrass damage rating; for pest or weed control at 62.5 g/ha: 62.5 g ai/ha, read-out: Barnyardgrass damage rating (100=total damage to plant; 0=no damage to plant); for pest or weed control at 62.5 g/ha / pest or weed control at 250 g/ha: evaluated after 13 days; for pest or weed control at 250 g/ha: 250 g ai/ha, read-out: damage to plant, Barnyardgrass (100=total damage to plant; 0=no damage to plant)
Procedure, shortened: as §2

[9] = tested on: redroot pigweed (Amaranthus retroflexus); assay: Test G Post-Emergence Protocol; details: Amaranthus retroflexus, post-emergence, 312 h; for pest or weed control at 15.625 g/ha: 15.625 g ai/ha, evaluated after 13 days (100=total damage to plant; 0=no damage to plant), read-out: Pigweed, Redroot damage rating; for pest or weed control at 62.5 g/ha: 62.5 g ai/ha, read-out: Pigweed, Redroot damage rating (100=total damage to plant; 0=no damage to plant); for pest or weed control at 62.5 g/ha / pest or weed control at 250 g/ha: evaluated after 13 days; for pest or weed control at 250 g/ha: 250 g ai/ha, read-out: damage to plant, Pigweed, Redroot (100=total damage to plant; 0=no damage to plant)
Procedure, shortened: as §2

[10] = tested on: corn (Zea mays); assay: Test G Post-Emergence Protocol; details: Zea mays, post-emergence, 312 h; for plant injury at 15.625 g/ha: 15.625 g ai/ha, evaluated after 13 days (100=total damage to plant; 0=no damage to plant), read-out: Corn damage rating; for plant injury at 62.5 g/ha: 62.5 g ai/ha, read-out: Corn damage rating (100=total damage to plant; 0=no damage to plant); for plant injury at 62.5 g/ha / plant injury at 250 g/ha: evaluated after 13 days; for plant injury at 250 g/ha: 250 g ai/ha, read-out: damage to plant, Corn (100=total damage to plant; 0=no damage to plant)
Procedure, shortened: as §2

[11] = tested on: velvetleaf (Abutilon theophrasti); assay: Test G Post-Emergence Protocol; details: Abutilon theophrasti, post-emergence, 312 h; for pest or weed control at 15.625 g/ha: 15.625 g ai/ha, evaluated after 13 days (100=total damage to plant; 0=no damage to plant), read-out: Velvetleaf damage rating; for pest or weed control at 62.5 g/ha: 62.5 g ai/ha, read-out: Velvetleaf damage rating (100=total damage to plant; 0=no damage to plant); for pest or weed control at 62.5 g/ha / pest or weed control at 250 g/ha: evaluated after 13 days; for pest or weed control at 250 g/ha: 250 g ai/ha, read-out: damage to plant, Velvetleaf (100=total damage to plant; 0=no damage to plant)
Procedure, shortened: as §2

[12] = tested on: giant foxtail (Setaria faberi); assay: Test G Post-Emergence Protocol; details: Setaria faberi, post-emergence, 312 h; for pest or weed control at 15.625 g/ha: 15.625 g ai/ha, evaluated after 13 days (100=total damage to plant; 0=no damage to plant), read-out: Foxtail, Giant damage rating; for pest or weed control at 62.5 g/ha: 62.5 g ai/ha, read-out: Foxtail, Giant damage rating (100=total damage to plant; 0=no damage to plant); for pest or weed control at 62.5 g/ha / pest or weed control at 250 g/ha: evaluated after 13 days; for pest or weed control at 250 g/ha: 250 g ai/ha, read-out: damage to plant, Foxtail, Giant (100=total damage to plant; 0=no damage to plant)
Procedure, shortened: as §2

Structure (SMILES)	pest or weed control at 15.625 g/ha [1] [%]	pest or weed control at 62.5 g/ha [1] [%]	pest or weed control at 250 g/ha [1] [%]	pest or weed control at 15.625 g/ha [2] [%]	pest or weed control at 62.5 g/ha [2] [%]	pest or weed control at 250 g/ha [2] [%]	pest or weed control at 15.625 g/ha [3] [%]	pest or weed control at 62.5 g/ha [3] [%]	pest or weed control at 250 g/ha [3] [%]	plant injury at 15.625 g/ha [4] [%]	plant injury at 62.5 g/ha [4] [%]	plant injury at 250 g/ha [4] [%]	pest or weed control at 15.625 g/ha [5] [%]	pest or weed control at 62.5 g/ha [5] [%]	pest or weed control at 250 g/ha [5] [%]	pest or weed control at 15.625 g/ha [6] [%]	pest or weed control at 62.5 g/ha [6] [%]	pest or weed control at 250 g/ha [6] [%]	pest or weed control at 15.625 g/ha [7] [%]	pest or weed control at 62.5 g/ha [7] [%]	further results
CN1C[C@@H](c2ccnc(C(F)(F)F)c2)[C@H](C(=O)Nc2cccc(F)c2F)C1=O (racemic) [Compound 1585]	0	30	80	70	90	90	0	0	20	0	80	80	0	0	30	70	80	90	20	30	pest or weed control at 250 g/ha [7]: 70%; pest or weed control at 15.625 g/ha [8]: 70%; pest or weed control at 62.5 g/ha [8]: 80%; pest or weed control at 250 g/ha [8]: 70%; pest or weed control at 15.625 g/ha [9]: 0%; pest or weed control at 62.5 g/ha [9]: 20%; pest or weed control at 250 g/ha [9]: 30%; plant injury at 15.625 g/ha [10]: 30%; plant injury at 62.5 g/ha [10]: 60%; plant injury at 250 g/ha [10]: 80%; pest or weed control at 15.625 g/ha [11]: 0%; pest or weed control at 62.5 g/ha [11]: 20%; pest or weed control at 250 g/ha [11]: 30%; pest or weed control at 15.625 g/ha [12]: 60%; pest or weed control at 62.5 g/ha [12]: 60%; pest or weed control at 250 g/ha [12]: 70%
CN1C[C@@H](c2ccc(C(F)(F)F)cc2)[C@H](C(=O)Nc2csc(C(F)(F)F)n2)C1=O (racemic) [Compound 1587]	0	0	0	0	0	0	0	0	10	0	10	0	0	0	0	0	0	0	0	0	pest or weed control at 250 g/ha [7]: 40%; pest or weed control at 15.625 g/ha [8]: 0%; pest or weed control at 62.5 g/ha [8]: 20%; pest or weed control at 250 g/ha [8]: 40%; pest or weed control at 15.625 g/ha [9]: 0%; pest or weed control at 62.5 g/ha [9]: 10%; pest or weed control at 250 g/ha [9]: 70%; plant injury at 15.625 g/ha [10]: 0%; plant injury at 62.5 g/ha [10]: 0%; plant injury at 250 g/ha [10]: 0%; pest or weed control at 15.625 g/ha [11]: 0%; pest or weed control at 62.5 g/ha [11]: 0%; pest or weed control at 250 g/ha [11]: 0%; pest or weed control at 15.625 g/ha [12]: 0%; pest or weed control at 62.5 g/ha [12]: 20%; pest or weed control at 250 g/ha [12]: 60%
